One series deals with A. baumanni 9955. As to the kind of experiment: MIC broth microdilution. Format: cell-based. The conditions noted are these: Acinetobacter baumannii, clinical isolate, CAMHB, median of triplicates, read-out: MIC (μg/mL) A. baumanni 9955. The procedure:
(§1) The antibacterial activity of the compounds was determined by measuring their minimum inhibitory concentration (MIC) values using the broth microdilution method according to the Clinical and Laboratory Standards Institute guidelines (CLSI). Briefly, a single colony from blood agar plates was inoculated into cation-adjusted Mueller-Hinton broth (CAMHB) and grown to OD600 = 0.5. Next, 10^6 CFU/mL were added to a 2-fold serial dilution series of test compounds and incubated at 37 °C, 600 rpm overnight (18–20 h for Gram-negative strains, 20–24 h for Gram-positive strains), after which the plates were visually inspected for bacterial growth. MICs are reported as the median of triplicates.
(Dilution methods test growth across graded concentrations, often in twofold steps.)

Another series relates to E. coli 25922. The series can be described thus: MIC broth microdilution. Format: cell-based. The settings on record: Escherichia coli, CAMHB, median of triplicates, read-out: MIC (μg/mL) E. coli 25922. The procedure: as §1
Another series concerns E. coli BW25113. The series can be described thus: MIC broth microdilution. Format: cell-based. The conditions noted are these: Escherichia coli, CAMHB, median of triplicates, read-out: MIC (μg/mL) E. coli BW25113. As to the method: as §1
Series [1] concerns E. coli TOP10F’. As to the kind of experiment: MIC broth microdilution. In kind it is cell-based. The conditions noted are these: Escherichia coli; screening strain; CAMHB, median of triplicates; read-out: MIC (μg/mL) E. coli TOP10F’. As to the method: as §1
In the next series the test system is K. pneumoniae 13883. As to the kind of experiment: MIC broth microdilution. Format: cell-based. The conditions noted are these: Klebsiella pneumoniae, clinical isolate, CAMHB, median of triplicates, read-out: MIC (μg/mL) K. pneumoniae 13883. The procedure: as §1
The subject of a further series is P. aeruginosa 27853. The series can be described thus: MIC broth microdilution. In kind it is cell-based. The settings on record: Pseudomonas aeruginosa, clinical isolate, CAMHB, median of triplicates, read-out: MIC (μg/mL) P. aeruginosa 27853. The procedure:
as §1

In the next series the test system is S. aureus USA 300. As to the kind of experiment: MIC broth microdilution. Format: cell-based. The settings on record: Staphylococcus aureus, USA300; clinical isolate; CAMHB, median of triplicates; read-out: MIC (μg/mL) S. aureus USA 300. The procedure: as §1
The test system of series [2] is E. coli TOP10F’. The series can be described thus: NPN uptake assay (outer membrane permeability). In kind it is cell-based. The conditions noted are these: 1 h, 10 μM NPN. As to the method: To investigate the effect of our quinolone hits on membrane permeability, we performed a 1-N- phenylnaphthylamine NPN uptake assay (Figure ), as described previously. NPN is a hydrophobic fluorophore that is unable to cross the OM under normal conditions.
6 Effect of compounds (A) A2 and (B) B1 on membrane integrity analyzed by NPN permeability. Polymyxin B was used at 1 μM and PMBN at 4 μM as membrane permeabilizing control compounds. Data represent the average relative fluorescence values of three independent experiments performed in triplicate. Error bars represent standard deviation of three independent experiments. Data were analyzed using a One-Way ANOVA with Dunnett’s multiple comparisons. **: p = 0.0017; ****: p < 0.0001.
ONC of E. coli TOP10F’ grown in LB were diluted to OD600 = 0.1 and subsequently grown until OD600 0.5 was reached. Bacterial cells were then pelleted at 1,000g for 10 min and resuspended in assay buffer (5 mM HEPES + 20 mM glucose, pH 7.2) to 1.0 OD600 units/ml. The cell suspension was then added to a black, clear bottom 96-well plate (Greiner Bio-One) at a final concentration of 0.5 OD600 units/ml. […] NPN fluorescence (Ex./Em. λ 355, 420) was measured after 1h incubation at room temperature. Relative fluorescence was calculated following the correction of NPN fluorescence in the absence of compound: NPNuptake=[Fobs−Fb]/[Fcontrol−Fb]

A further series concerns E. coli TOP10F’ cells. The series can be described thus: Phase contrast and fluorescence microscopy of cell morphology. The conditions noted are these: EC50 concentrations, 4 h, vs DMSO. In kind it is cell-based. The source says:
DMSO-treated control cells had normal rod-shaped morphology. Drastic changes to cell and membrane morphology were observed following compound treatment.
Cells were stained with Nile red to visualize membranes and Hoechst to label DNA. a: Phase Contrast; b: Nile Red; c: Hoechst; d: overlay of Nile Red and Hoechst. White arrows indicate differences observed between control and compound treated cells, such as different localization and increased number of bright, lipid spots, vesicle-like bulges, apparent leakage of lipid contents and condensed DNA. Pictures are representative of at least 5 images taken per sample, during two independent experiments with similar results. Bottom panels show (B) cell length or (C) cell area after treatment with DMSO or EC50 concentrations of A2 or B1. Cells were analyzed after 4h of compound treatment. Data are representative of two independent experiments with similar results. Data were analyzed using a One-Way ANOVA with Kruskal–Wallis test for multiple comparisons. **** = p < 0.0001. Cells were counted from 3 to 5 pictures of each condition (DMSO: n = 1773, A2: n = 1920, B1: n = 555). Data are representative of two individual experiments with similar results.
Cells were collected at 4600g for 5 min. […]
Images were processed using ImageJ. Cell length and width were quantified using Oufti. Image data were analyzed using GraphPad Prism 10.3.1. […]

Another series deals with E. coli TOP10F'. As to the kind of experiment: Growth inhibition after 7 hours (EC80/EC50). The conditions noted are these: for EC50 / IC80: Escherichia coli, 7 h; for EC50: read-out: EC50 TOP10F'; for IC80: read-out: EC80 TOP10F'.
The next series has as its system E. coli MC4100. As to the kind of experiment: Growth inhibition after 7 hours (EC80/EC50). The settings on record: Escherichia coli, MC4100, 7 h; for EC50: read-out: EC50 MC4100; for IC80: read-out: EC80 MC4100.

Converted amounts (≈) assume the structure as drawn.

By EC50 is commonly meant the concentration needed to bring the measured effect to its halfway point.

Consider `CC(C)(C)n1cc(C(=O)O)c(=O)c2cc(F)c(N3CC4CC3CN4)nc21` (stereo not drawn) [A2], for which the MIC in the series with A. baumanni 9955 is 0.5 µg/mL (≈ 1.39 µM); in the series on E. coli 25922, 0.125 µg/mL (≈ 0.347 µM); with E. coli BW25113 it was 0.06 µg/mL (≈ 0.166 µM); in the series on E. coli TOP10F’ [1], under 0.03 µg/mL; in the series with K. pneumoniae 13883, 0.125 µg/mL (≈ 0.347 µM); in the series with P. aeruginosa 27853, 1 µg/mL (≈ 2.77 µM). Also, in the series with S. aureus USA 300, the MIC turned out to be 8 µg/mL (≈ 22.2 µM). Also, the “NPN relative fluorescence (membrane permeability)” value in the series on E. coli TOP10F’ [2] was “significant increase in relative fluorescence at 4 and 16 μM”. Moreover, in the series on E. coli TOP10F’ cells, the cell length entry is reported as “significantly increased the overall average length of the cells”. The EC50 was 0.016 µg/mL (≈ 0.0444 µM) with E. coli TOP10F' and 0.125 µg/mL (≈ 0.347 µM) in the series on E. coli MC4100. Further, the figures for the IC80 in the series on E. coli TOP10F' and in the series on E. coli MC4100 were 0.063 µg/mL (≈ 0.175 µM) and 0.25 µg/mL (≈ 0.694 µM), respectively. For the same molecule, in the series with E. coli TOP10F' (as quoted in the NPN section), the EC80 concentration entry is listed as “around 0.35 μM”.
Consider `O=C1COc2ccc(CNC3CCN(CC4Cc5c(F)cc(F)c6ccc(=O)n4c56)CC3)nc2N1` (stereo not drawn) [B1], for which the MIC in the series on A. baumanni 9955 was 0.25 µg/mL (≈ 0.519 µM); in the series on E. coli 25922 it was 0.5 µg/mL (≈ 1.04 µM); with E. coli BW25113, 0.25 µg/mL (≈ 0.519 µM); in the series with E. coli TOP10F’ [1], under 0.03 µg/mL; in the series with K. pneumoniae 13883, 1 µg/mL (≈ 2.08 µM); with P. aeruginosa 27853 it was 8 µg/mL (≈ 16.6 µM). The MIC in the series with S. aureus USA 300 amounted to 0.06 µg/mL (≈ 0.125 µM). For the same molecule, the “NPN relative fluorescence (membrane permeability)” value in the series on E. coli TOP10F’ [2] is on record as “did not exhibit an increase in fluorescence”. Besides, the cell length result in the series with E. coli TOP10F’ cells is recorded as “significantly increased the overall average length of the cells”. For the same molecule, the concentration giving a half-maximal response (EC50) was 0.031 µg/mL (≈ 0.0644 µM) in the series with E. coli TOP10F' and 0.5 µg/mL (≈ 1.04 µM) in the series with E. coli MC4100. The IC80 in the series with E. coli TOP10F' is 0.5 µg/mL (≈ 1.04 µM); in the series on E. coli MC4100, 2 µg/mL (≈ 4.15 µM).

The values above are taken from article PMC12442099 (ACS Infectious Diseases, 2025).
